Measurements from paper PMC8512812, “Clerodane Diterpenoids from an Edible Plant Justicia insularis: Discovery, Cytotoxicity, and Apoptosis Induction in Human Ovarian Cancer Cells” (Molecules, 2021).
Where two headings read alike, the source gives them in different places.

Assays:
OVCAR-8 cells [1] = experiment: Annexin V-FITC / propidium iodide flow cytometry; type: cell-based, human; conditions: 5, 10, and 20 µM, 48 h treatment
Experimental: The in vitro method of fluorescence-activated cell sorting (FACS) by Annexin V and propidium iodide (PI) staining was used to detect the change of cell population as reported. OVCAR-8 cells were seeded in 12 well plates at a density of 2 × 10^5 cells per well in 1 mL of growth media and incubated for 24 h before treatment with the tested compound and positive control. After treatment for 48 h, media were decanted into 15 mL tubes, and cell pellets were collected into the same tubes by trypsinisation, the cells were centrifuged at 150× g for 3 min and re-suspended into 1 mL growth media, which was transferred into sterile 2 mL Eppendorf tube, centrifuged at 300× g for 5 min at 4 °C. The media were aspirated, and the pellet was washed in cold PBS. The cells were centrifuged under the same conditions and the supernatant aspirated. Cells were washed in 500 µL annexin-V binding buffer and centrifuged at 300× g for 10 min, annexin-V binding buffer was aspirated, and the cell pellet was treated with 10 µL of annexin V-FITC in 100 µL of binding buffer. The cells were thoroughly mixed and incubated in the dark at room temperature for 15 min. After incubation, cells were washed in binding buffer and centrifuged at 300× g for 10 min. The buffer was aspirated, and cells were suspended in 500 µL binding buffer and subsequently 5 µL of PI was added for flow cytometry analysis.

[2] = tested on: caspase 9 in OVCAR-8 cells; experiment: Caspase-Glo 9 activity assay; type: cell-based, human
Experimental: (§1) Caspase 3/7 activities was measured using assay kits caspase-Glo 3/7 (Promega Corp., Madison, WI, USA) on a 96-well microplate. Briefly, the cells (OVCAR-4 and OVCAR-8) were seeded in 96 well plates at a cell density of 5000 cells/well in 80 μL growth media and exposed to 10, 20 and/or 30 μM of the natural compounds after 24 h incubation. After 48 h exposure to compound treatments, 25 μL of Caspase 3/7 Glo-reagent was added, and the cells were incubated in the dark at room temperature for 30 min on a gentle rocker. The luminescence was measured at […] by a BioTEK Synergy microplate reader (USA). A similar procedure was followed for caspase 8 and caspase 9 activity.

OVCAR-4 cells = experiment: Sulforhodamine B (SRB) cell growth inhibitory assay; type: cell-based, human
Experimental: (§2) The human ovarian cancer cell lines and normal human ovarian surface epithelial (HOE) cells were used in this study. Ovarian cancer cell lines (OVCAR-4 and OVCAR-8) were products of American tissue culture collection (ATCC). The HOE cells were purchased from Applied Biological Materials (ABM) Inc. (Vancouver, BC, Canada). The Rosewell Park Memorial Institute (RPMI 1640, Lonza) medium was used in the culturing of OVCAR-4, OVCAR-8, and HOE cells. The medium was supplemented with 2 mM glutamine, 10% foetal bovine serum (FBS), and 50 µg/mL penicillin streptomycin. These cells were incubated in a standard humidified incubator) at 37 °C, 5% carbon dioxide (CO2) conditions.
(§3) Sulforhodamine B (SRB) assay was used to determine the inhibition of cell proliferation by the studied compounds and plant extracts. Plant extracts/fractions (100 mg/mL) and pure compounds (20 mM) were prepared in DMSO. The 0.2% DMSO in growth media was added to the cells as vehicle-treated cells (negative control) while carboplatin was used as positive control. In the SRB assay, OVCAR-4, OVCAR-8, and HOE cells were seeded in 80 µL growth medium per each well in 96 well plates. OVCAR-4 and HOE were seeded at a density of 5000 cells per well while OVCAR-8 was seeded at a density of 2000 cells per well. The seeded plates were incubated for 24 h, after which 20 μL of plant extracts and natural compounds 1000 µg/mL and 200 µM (and their serial two-fold dilutions), respectively, were added at the indicated concentrations. The cell cultures were incubated at 37 °C under 5% CO2 for 72 h in a humidified atmosphere.
(§4) After 72 h, the medium was decanted, and the cells fixed with 0.1 mL of 10% TCA on ice for 30 min before drying. The cells were stained with 0.4% SRB, washed with 1% acetic acid three times and dried. Then, 0.1 mL of Tris-base (10 mM) was added to the plates to solubilise the protein-bound SRB dye. The absorbance at 570 nm was measured using a spectroscopic plate reader (Multi-mode microplate reader BioTEK Synergy 2, Winooski, VT, USA). The data were analysed by non-linear regression to fit a 4-parameter sigmoidal dose–response curve to determine IC50 values using GraphPad PRISM 6.0 software, Inc. (San Diego, CA, USA).
(§5) The IC50s were obtained from at least three repeated experiments. The mean IC50 was calculated, and the standard error of mean (SEM) was determined. Furthermore, a one way analysis of variance (ANOVA) and student t test were used to test if the difference in the mean of control and treatments and mean of treatment at different concentration were significant. A post hoc Dunnett test was used to determine which of the treatments was significant to the control while a Tukey test was used to determine which of the concentrations of a particular treatment were significant using GraphPad prism 6.

OVCAR-8 cells [3] = experiment: as above; type: cell-based, human; conditions: for SI against OVCAR-8: ratio of IC50 against HOE cells to IC50 against OVCAR-8
Experimental: as §2, §3, §4, §5

[4] = Thermal stability (GC-MS conditions; heating followed by HPLC); type: physicochemical
Experimental: Briefly, 1.0–2.0 mg of the bioactive fractions and isolated compounds of J. insularis were dissolved in 200 μL of ethyl acetate and sonicated at <40 °C for 5 min. 1–2 μL of the solution was subsequently injected into gas chromatography mass spectrometry (GC-MS) system consisting of an Agilent 7890 coupled to Agilent MS model 5975C MSD (Agilent Technologies, Cold Spring, NY, USA). The gas chromatography started at 60 °C for 2 min and increased to 300 °C at the rate of 10 °C/min, which was held at 300 °C for 4 min at a constant helium pressure (10 psi). The mass spectra data were acquired in the scan mode in m/z range 40–1000.
The molecular formula of 1 was determined as C20H30O3 based on the observed molar mass of compound 1 (found, 318.2123 Da) by LC-HR-MS (Figure S4). […] The other observed compounds, 1a and 1b (Figure S5), were determined to be the thermal degradation products of compound 1 due to the presence of a γ–hydroxy unsaturated 5-membered lactone moiety (Figure 1) under high temperature conditions (60 °C–300 °C) for 30 min of GC-MS. […] Furthermore, the percentage of compound 1 in organic extracts was determined to be 34%. Thus, the composition of compound 1 in the plant material is 0.7% (dry weight), a very abundant secondary metabolite in the leave of J. insularis.

[5] = tested on: caspase 3/7 in OVCAR-8 cells; experiment: Caspase-Glo 3/7 activity assay; type: cell-based, human; conditions: 10, 20 and/or 30 μM, 48 h, vs control, one-way ANOVA
Experimental: as §1

[6] = tested on: caspase 3/7 in OVCAR-4 cells; experiment: Caspase-Glo 3/7 activity assay; type: cell-based, human; conditions: 10, 20 and/or 30 μM, 48 h, vs control, one-way ANOVA
Experimental: as §1

[7] = tested on: HOE cells (normal human ovarian surface epithelial); experiment: Sulforhodamine B (SRB) cell growth inhibitory assay; type: cell-based; conditions: for IC50: SRB, 72 h; for cytotoxic activity against HOE cells: compared with OVCAR-4 and OVCAR-8
Experimental: as §2, §3, §4, §5

[8] = tested on: OVCAR-4 and OVCAR-8 cells; experiment: SRB cell growth assay, result stated jointly for both cancer lines; type: cell-based, human; conditions: span over the two cell lines, read-out: IC50 against OVCAR-4 and OVCAR-8 cells
Experimental: as §2, §3, §4, §5

[9] = tested on: caspase 8 in OVCAR-8 cells; experiment: Caspase-Glo 8 activity assay; type: cell-based, human
Experimental: as §1

Hela cells = tested on: Hela cells; set-up: method as in PMID 32213364; conditions: from the leaves of Casearia kurzii; read-out: IC50 against Hela cells; cited from earlier work
[10] = Homo sapiens, OVCAR-4, 72 h, mean ± SEM, read-out: growth inhibitory activity, IC50, OVCAR-4
[11] = Homo sapiens, OVCAR-4, 72 h, same IC50 given in μg/mL, read-out: growth inhibitory activity, IC50, OVCAR-4, in parentheses (converted)
[12] = Homo sapiens, OVCAR-8, SRB, 72 h, mean ± SEM, read-out: growth inhibitory activity, IC50, OVCAR-8
[13] = Homo sapiens, OVCAR-8, SRB, 72 h, same IC50 given in μg/mL, read-out: growth inhibitory activity, IC50, OVCAR-8, in parentheses (converted)
[14] = Homo sapiens, mean ± SEM, read-out: growth inhibitory activity, IC50, HOE
[15] = Homo sapiens, same IC50 given in μg/mL, read-out: growth inhibitory activity, IC50, HOE, in parentheses (converted)

| Compound | IC50 (OVCAR-4 cells; [10]) | IC50 (OVCAR-4 cells; [11]) | IC50 (OVCAR-8 cells [3]; [12]) | IC50 (OVCAR-8 cells [3]; [13]) | SI against OVCAR-8 (OVCAR-8 cells [3]) | caspase 3/7 activities [5] | caspase 3/7 activities [6] | IC50 [7, 14] | IC50 [7, 15] | cytotoxic activity against HOE cells [7] | IC50 ([8]; Homo sapiens) | IC50 [8] | other results |
| --- | --- | --- | --- | --- | --- | --- | --- | --- | --- | --- | --- | --- | --- |
| CC1=CCC[C@@H]2[C@@](C)(CCC3=CC(=O)OC3O)[C@H](C)CC[C@@]12C (mixture of isomers) [Compound 1, 16(α/β)-hydroxy-cleroda-3,13(14)Z-dien-15,16-olide] | 5.7 ± 0.3 µM | 1.8 µg/mL | 4.4 ± 0.2 µM | 1.4 µg/mL | 3 | significantly increased | significantly increased | 12.1 ± 0.1 µM | 3.9 µg/mL | less cytotoxic activity | 4 to 6 µM | < 6 µM | percentage of early and late apoptosis (OVCAR-8 cells [1]): concentration-dependent and significant increase; caspase 9 activity [2]: increased; IC50 (OVCAR-8 cells [3]; Homo sapiens, OVCAR-8, Figure S1 scheme, read-out: IC50 in OVCAR-8 (Figure S1)): 1.42 µg/mL; thermal stability, HPLC after heating ([4]; 200 °C for 0.5 h followed by HPLC analysis): formation of new products; thermal stability ([4]; at a high temperature): thermally unstable; caspase 8 activity [9]: increased |
| N.N.O=C([O-])C1(C(=O)[O-])CCC1.[Pt+2] [Carboplatin, carboplatin, reference compound] |  |  |  |  | 1.6 |  |  |  |  |  |  | 8 to 18 µM | IC50 (OVCAR-4 cells; 72 h, mean ± SEM, read-out: growth inhibitory activity, IC50, OVCAR-4): 17.6 ± 4.6 µM; IC50 (OVCAR-8 cells [3]; SRB, 72 h, mean ± SEM, read-out: growth inhibitory activity, IC50, OVCAR-8): 8.2 ± 2.2 µM; IC50 ([7]; mean ± SEM, read-out: growth inhibitory activity, IC50, HOE): 13 ± 3.7 µM |
| CC1=CCC[C@@H]2[C@@](C)(CC/C(C=O)=C\C(=O)O)[C@H](C)CC[C@@]12C [Compound 2, 16-oxo-cleroda-3,13(14)E-dien-15-oic acid] | 16.6 ± 2.8 µM | 5.3 µg/mL | 11.8 ± 0.5 µM | 3.8 µg/mL | 2 | significantly increased | significantly increased | 22.8 ± 0.7 µM | 7.3 µg/mL | less cytotoxic activity | 12 to 17 µM |  |  |
| Kurzipene B |  |  |  |  |  |  |  |  |  |  |  |  | IC50 (Hela cells): 5.3 µM |
